Consider 1 substance from patent US11066365B2, “1-cyano-pyrrolidine compounds as USP30 inhibitors” (Mission Therapeutics Limited, priority 2015, dated 2021).

In general, IC50 refers to the concentration that inhibits the measured activity by half.

This assay has as its target USP30 (Homo sapiens (Human), UniProt Q70CQ3). The experiment in a line: USP30 biochemical IC50 assay (fluorescence polarisation, FP). The following applies: USP30 biochemical FP or FI IC50 assay (table does not say which format per compound); read-out: IC50 range. Here is the method: In Vitro USP30 FP Inhibition Assay
USP30 Biochemical IC50 Assay
Dilution plates were prepared at 21 times the final concentration (2100 μM for a final concentration of 100 μM) in 50% DMSO in a 96-well polypropylene V-bottom plate (Greiner #651201). A typical 8-point dilution series would be 100, 30, 10, 3, 1, 0.3, 0.1, 0.03 μM final. Reactions were performed in duplicate in black 384 well plates (small volume, Greiner 784076) in a final reaction volume of 21 μl. Either 1 μl of 50% DMSO or diluted compound was added to the plate. USP30 was diluted in reaction buffer (40 mM Tris, pH 7.5, 0.005% Tween 20, 0.5 mg/ml BSA, 5 mM beta-mercaptoethanol) to the equivalent of 0.05 μl/well and 10 μl of diluted USP30 was added to the compound. Enzyme and compound were incubated for 30 min at room temp. Reactions were initiated by the addition of 50 nM of TAMRA labelled peptide linked to ubiquitin via an iso-peptide bond as fluorescence polarisation substrate. Reactions were read immediately after addition of substrate and following a 2 hr incubation at room temperature. Readings were performed on a Pherastar Plus (BMG Labtech).

USP30, sequence (Q70CQ3 57-517): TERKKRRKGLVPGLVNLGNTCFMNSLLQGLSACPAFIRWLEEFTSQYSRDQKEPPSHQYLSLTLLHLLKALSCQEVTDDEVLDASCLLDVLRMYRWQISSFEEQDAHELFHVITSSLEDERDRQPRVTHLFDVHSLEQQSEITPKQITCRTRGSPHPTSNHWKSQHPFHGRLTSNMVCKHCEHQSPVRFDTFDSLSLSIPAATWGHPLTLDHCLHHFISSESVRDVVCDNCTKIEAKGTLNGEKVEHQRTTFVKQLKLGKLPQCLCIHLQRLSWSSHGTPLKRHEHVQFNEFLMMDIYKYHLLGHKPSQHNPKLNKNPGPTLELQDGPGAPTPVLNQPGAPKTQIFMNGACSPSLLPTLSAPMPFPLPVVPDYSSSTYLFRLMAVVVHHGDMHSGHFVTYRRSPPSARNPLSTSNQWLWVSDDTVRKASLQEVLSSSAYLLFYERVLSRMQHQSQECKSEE

For “rac-(3aR,6aR)-1-(3-phenyl-1H- pyrazole-5- carbonyl)hexahydropyrrolo[3,4- bipyrrole-5(1H)-carbonitrile [Example 52]”, the IC50 was in the range of 100 to 1000 nM.
